Reference: PubChem BioAssay (NCI)
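Growth conditions: 96-well plates. Treatment: test compound, 48 hours, 5 concentrations. Analysis: linear interpolation between bracketing concentrations; unreached endpoints set to highest concentration. GI50 = concentration required for 50% inhibition of growth. TGI: concentration producing complete growth inhibition.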

What was measured:
Test in all cases: inhibition of tumour cell growth, NCI panel, 48 h
HCT-116 colon = tested on: HCT-116 colon
LXFL 529 NSCLC = tested on: LXFL 529 NSCLC
M19-MEL melanoma = tested on: M19-MEL melanoma
NCI-H23 lung = tested on: NCI-H23 lung
SK-MEL-28 melanoma = tested on: SK-MEL-28 melanoma
SK-OV-3 ovarian = tested on: SK-OV-3 ovarian
UACC-62 melanoma = tested on: UACC-62 melanoma
BT-549 breast = tested on: BT-549 breast
DU-145 prostate = tested on: DU-145 prostate
MDA-MB-231 breast = tested on: MDA-MB-231 breast

In the case of `C[CH2][Sn]([Cl])([CH2]C)[CH2]C`, the GI50 (HCT-116 colon) was 1.33 µM, the TGI (HCT-116 colon) was 10.4 µM and the GI50 (LXFL 529 NSCLC) was 0.469 µM. For the same compound, the TGI (LXFL 529 NSCLC) was 3.27 µM, the GI50 (M19-MEL melanoma) was 2.06 µM and the TGI (M19-MEL melanoma) was 11.4 µM. It also gave a GI50 (NCI-H23 lung) of 0.556 µM, a TGI (NCI-H23 lung) of 4.84 µM and a GI50 (SK-MEL-28 melanoma) of 1.67 µM. It also gave a TGI (SK-MEL-28 melanoma) of 11.6 µM, a GI50 (SK-OV-3 ovarian) of 1.47 µM and a TGI (SK-OV-3 ovarian) of 5.8 µM. For the same compound, the GI50 (UACC-62 melanoma) was 0.515 µM and the TGI (UACC-62 melanoma) was 11.5 µM.
Compound `COc1ccc2c([nH]c3cc(O)c(C)cc32)c1CC=C(C)C` has a GI50 (HCT-116 colon) of 11.9 µM, a TGI (HCT-116 colon) greater than 25 µM and a GI50 (LXFL 529 NSCLC) of 8.63 µM. The TGI (LXFL 529 NSCLC) was greater than 25 µM, the GI50 (M19-MEL melanoma) was 12.2 µM and the TGI (M19-MEL melanoma) was greater than 25 µM. The TGI (SK-MEL-28 melanoma) was greater than 25 µM, the TGI (SK-OV-3 ovarian) was greater than 25 µM and the GI50 (UACC-62 melanoma) was 9.11 µM. For the same compound, the TGI (UACC-62 melanoma) was greater than 25 µM.
`O=C(Nc1ccc(Cl)cc1F)c1cc(Cl)ccc1O` gave a GI50 (BT-549 breast) of 0.379 µM, a TGI (BT-549 breast) of 2.04 µM and a GI50 (DU-145 prostate) of 0.915 µM. The TGI (DU-145 prostate) was greater than 42.8 µM, the GI50 (HCT-116 colon) was 0.431 µM and the TGI (HCT-116 colon) was 2.24 µM. It also gave a GI50 (MDA-MB-231 breast) of 0.554 µM, a TGI (MDA-MB-231 breast) of 3.46 µM and a GI50 (NCI-H23 lung) of 0.294 µM. For the same compound, the TGI (NCI-H23 lung) was 1.91 µM, the GI50 (SK-MEL-28 melanoma) was 0.364 µM and the TGI (SK-MEL-28 melanoma) was 1.84 µM. It also gave a GI50 (SK-OV-3 ovarian) of 0.576 µM, a TGI (SK-OV-3 ovarian) of 8.6 µM and a GI50 (UACC-62 melanoma) of 0.279 µM. For the same compound, the TGI (UACC-62 melanoma) was 1.11 µM.
Compound `COc1ccc2c(c1)c(-c1nc(-c3cn(C)c4ncccc34)cs1)cn2CCCCN1CCOCC1` has a GI50 (BT-549 breast) of 2.3 µM, a TGI (BT-549 breast) of 10.7 µM and a GI50 (DU-145 prostate) of 1.71 µM. The TGI (DU-145 prostate) was 5.05 µM, the GI50 (HCT-116 colon) was 1.8 µM and the TGI (HCT-116 colon) was 3.91 µM. It also gave a GI50 (MDA-MB-231 breast) of 0.941 µM, a TGI (MDA-MB-231 breast) of 2.49 µM and a GI50 (NCI-H23 lung) of 2.02 µM. For the same compound, the TGI (NCI-H23 lung) was 5.58 µM, the GI50 (SK-MEL-28 melanoma) was 1.5 µM and the TGI (SK-MEL-28 melanoma) was 2.97 µM. The GI50 (SK-OV-3 ovarian) was 4.22 µM, the TGI (SK-OV-3 ovarian) was 15.2 µM and the GI50 (UACC-62 melanoma) was 1.62 µM. It also gave a TGI (UACC-62 melanoma) of 3.44 µM.
`C/C=C/C=C\C(=O)C1c2cccc(O)c2C(=O)c2c(O)cc(C)cc21` (centres undefined) showed a TGI (HCT-116 colon) of 2.92 µM, a TGI (M19-MEL melanoma) of 2.16 µM and a TGI (NCI-H23 lung) of 3.65 µM. The TGI (SK-MEL-28 melanoma) was 3.51 µM and the TGI (SK-OV-3 ovarian) was 3.08 µM.
Compound `COc1ccc2cc(C(=O)/C=C/c3ccco3)ccc2c1` has a GI50 (BT-549 breast) of 20.4 µM, a TGI (BT-549 breast) of 43.8 µM and a GI50 (DU-145 prostate) of 23.9 µM. For the same compound, the TGI (DU-145 prostate) was 88.6 µM, the GI50 (HCT-116 colon) was 1.29 µM and the TGI (HCT-116 colon) was 35.6 µM. For the same compound, the GI50 (MDA-MB-231 breast) was 29.2 µM, the TGI (MDA-MB-231 breast) was greater than 100 µM and the GI50 (NCI-H23 lung) was 19.5 µM. The TGI (NCI-H23 lung) was 42.7 µM, the GI50 (SK-MEL-28 melanoma) was greater than 100 µM and the TGI (SK-MEL-28 melanoma) was greater than 100 µM. For the same compound, the GI50 (SK-OV-3 ovarian) was 53.1 µM, the TGI (SK-OV-3 ovarian) was greater than 100 µM and the GI50 (UACC-62 melanoma) was 26.6 µM. The TGI (UACC-62 melanoma) was greater than 100 µM.
Compound `CCOC(=O)/C(=C/c1ccc(Cl)cc1)N(CC)CC` has a TGI (HCT-116 colon) greater than 100 µM, a TGI (LXFL 529 NSCLC) greater than 100 µM and a TGI (M19-MEL melanoma) greater than 100 µM. It also gave a TGI (NCI-H23 lung) greater than 100 µM, a TGI (SK-MEL-28 melanoma) greater than 100 µM and a TGI (SK-OV-3 ovarian) greater than 100 µM. For the same compound, the TGI (UACC-62 melanoma) was greater than 100 µM.
`O=C(O)C1CCCCC1C(=O)Nc1nc2ccccc2[nH]1` (centres undefined) was tested, and the TGI (BT-549 breast) was greater than 100 µM, the TGI (DU-145 prostate) was greater than 100 µM and the TGI (HCT-116 colon) was greater than 100 µM. It also gave a TGI (MDA-MB-231 breast) greater than 100 µM, a TGI (NCI-H23 lung) greater than 100 µM and a TGI (SK-MEL-28 melanoma) greater than 100 µM. It also gave a TGI (SK-OV-3 ovarian) greater than 100 µM and a TGI (UACC-62 melanoma) greater than 100 µM.
Compound `Cc1ccc(C(O)/C(=N/N)c2nc3ccc([N+](=O)[O-])cc3[nH]c2=O)cc1` (centres undefined) has a TGI (HCT-116 colon) greater than 100 µM, a TGI (LXFL 529 NSCLC) greater than 100 µM and a TGI (M19-MEL melanoma) greater than 100 µM. The TGI (NCI-H23 lung) was greater than 100 µM, the TGI (SK-MEL-28 melanoma) was greater than 100 µM and the TGI (SK-OV-3 ovarian) was greater than 100 µM. It also gave a TGI (UACC-62 melanoma) greater than 100 µM.
